Patent US20240158446A1, “CYCLIC COMPOUND HAVING SELECTIVE INHIBITORY ACTION ON KRAS OVER HRAS AND NRAS” (CHUGAI SEIYAKU KABUSHIKI KAISHA, priority 2021, published 2024)
Where two headings read alike, the source gives them in different places. Where a SMILES comes first, the peptide text is derived from it. Bridges are numbered along the chain shown (N, C = ends). [ ]: non-standard residue; d: D form. The star is where a group is joined. hPhe(3-Cl-4-CF3) = N[C@@H](CCc1ccc(C(F)(F)F)c(Cl)c1)C(=O)O; NPrPhe(4-CF3) = CCCN[C@@H](Cc1ccc(C(F)(F)F)cc1)C(=O)O; NMeGly(cPent) = CN[C@H](C(=O)O)C1CCCC1; NMeD = CN[C@@H](CC(=O)O)C(=O)O; NMeL = CN[C@@H](CC(C)C)C(=O)O; Azetidin(1-yl) = C1CN(*)C1; NMeA = CN[C@@H](C)C(=O)O; Ac5c = NC1(C(=O)O)CCCC1; Aze = O=C(O)[C@@H]1CCN1; Sar = CNCC(=O)O

What was measured:
[1] = biological target: GDP-bound HRAS wild-type protein (Homo sapiens, UniProt P01112); assay: Binding to HRAS by surface plasmon resonance (SPR), Single Cycle Kinetics; settings: SPR; for HRAS/KRAS (ratio of KD value with respect to HRAS to KD value with respect to KRAS) / HRAS/KRAS (ratio of KD value for HRAS to KD value for KRAS): GDP-bound HRAS wild-type protein vs GDP-bound KRAS wild-type protein
GDP-bound HRAS wild-type protein, sequence (P01112 whole entry): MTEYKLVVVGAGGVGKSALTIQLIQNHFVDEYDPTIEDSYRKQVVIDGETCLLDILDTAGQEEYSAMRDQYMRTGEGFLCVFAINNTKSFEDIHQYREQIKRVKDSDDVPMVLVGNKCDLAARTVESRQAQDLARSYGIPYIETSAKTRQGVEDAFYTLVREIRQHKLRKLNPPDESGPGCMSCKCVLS

[2] = biological target: GDP-bound NRAS wild-type protein (Homo sapiens, UniProt P01111); assay: Binding to NRAS by surface plasmon resonance (SPR), Single Cycle Kinetics; settings: SPR; for NRAS/KRAS (ratio of KD value with respect to NRAS to KD value with respect to KRAS) / NRAS/KRAS (ratio of KD value for NRAS to KD value for KRAS): GDP-bound NRAS wild-type protein vs GDP-bound KRAS wild-type protein
GDP-bound NRAS wild-type protein, sequence (P01111 whole entry): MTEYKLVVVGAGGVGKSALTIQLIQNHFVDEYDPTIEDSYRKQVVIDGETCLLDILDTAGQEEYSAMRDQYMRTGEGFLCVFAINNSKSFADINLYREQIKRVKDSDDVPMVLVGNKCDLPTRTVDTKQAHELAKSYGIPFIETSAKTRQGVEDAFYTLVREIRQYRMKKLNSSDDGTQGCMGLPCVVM

[3] = biological target: GDP-bound KRAS wild-type protein (Homo sapiens, UniProt P01116); assay: Binding to KRAS by surface plasmon resonance (SPR), Single Cycle Kinetics; settings: GDP-bound KRAS wild-type protein, read-out: KRAS KD
GDP-bound KRAS wild-type protein, sequence (P01116 whole entry): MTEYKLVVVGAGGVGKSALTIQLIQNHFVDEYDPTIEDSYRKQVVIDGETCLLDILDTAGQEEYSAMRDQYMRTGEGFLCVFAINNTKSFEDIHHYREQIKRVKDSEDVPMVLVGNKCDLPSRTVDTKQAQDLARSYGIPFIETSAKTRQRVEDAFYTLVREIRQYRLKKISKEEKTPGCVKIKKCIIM

[4] = SPR Single Cycle Kinetics, 1:1 binding model
[5] = SPR, Single Cycle Kinetics, 1:1 binding model

| SMILES | Kd [3, 4] [nM] | Kd ([3]; SPR, Single Cycle Kinetics) [nM] | HRAS/KRAS (ratio of KD value for HRAS to KD value for KRAS) [1] | NRAS/KRAS (ratio of KD value for NRAS to KD value for KRAS) [2] | also measured |
| --- | --- | --- | --- | --- | --- |
| CC[C@H](C)[C@@H]1NC(=O)[C@H](CC(C)C)N(C)C(=O)C[C@@H](C(=O)N2CCOCC2)N(C)C(=O)[C@H](C2CCCC2)N(C)C(=O)C2(CCCC2)NC(=O)[C@@H]2CCCN2C(=O)[C@H](CCc2ccc(C(F)(F)F)c(Cl)c2)NC(=O)CN(C)C(=O)[C@H](Cc2ccc(OC)cc2)N2CC=CC[C@@H](C2=O)N(C)C(=O)CN(C)C1=O [PP0535] | 0.5 |  |  |  | HRAS/KRAS (ratio of KD value with respect to HRAS to KD value with respect to KRAS) [1]: B (a compound having 3 or more and less than 10 is denoted as B); NRAS/KRAS (ratio of KD value with respect to NRAS to KD value with respect to KRAS) [2]: C (A compound having a KD ratio of 0.1 or more and less than 3 is denoted as C) |
| CC[C@H](C)[C@@H]1NC(=O)[C@H](CC(C)C)N(C)C(=O)C[C@@H](C(=O)N2CCOCC2)N(C)C(=O)[C@H](C2CCCC2)N(C)C(=O)C2(CCC2)NC(=O)[C@@H]2[C@H](O)CCN2C(=O)[C@H](CCc2cc(F)c(C(F)(F)F)c(F)c2)NC(=O)CN(C)C(=O)[C@H](Cc2ccc(C(F)(F)F)cc2)N2CCCC[C@@H](C2=O)N(C)C(=O)CN(C)C1=O [PP0870] |  | 0.057 | B (a compound having 3 or more and less than 10 is denoted as B) | B (a compound having 3 or more and less than 10 is denoted as B) |  |
| CCCN1C(=O)[C@@H]2CCN2C(=O)[C@H](C)N(C)C(=O)[C@H]([C@@H](C)CC)NC(=O)[C@H](CC(C)C)N(C)C(=O)C[C@@H](C(=O)N2CCC2)N(C)C(=O)[C@H](C2CCCC2)N(C)C(=O)C2(CCCC2)NC(=O)[C@@H]2CCCN2C(=O)[C@H](CCc2ccc(C(F)(F)F)c(Cl)c2)NC(=O)CN(C)C(=O)[C@@H]1Cc1ccc(C(F)(F)F)cc1 [PP0181] ([NMeL]I[NMeA][Aze][NPrPhe(4-CF3)][Sar][hPhe(3-Cl-4-CF3)]P[Ac5c][NMeGly(cPent)][NMeD]-{Azetidin(1-yl)}; lactam N-11) | 0.081 |  | B (a compound having 3 or more and less than 10 is denoted as B) | C (A compound having a KD ratio of 0.1 or more and less than 3 is denoted as C) |  |
| CCO[C@@H]1C[C@H]2C(=O)NC3(CCC3)C(=O)N(C)[C@@H](C(CC)CC)C(=O)N(C)[C@H](C(=O)N3CCCCC3)CC(=O)N(C)[C@H]3CCCC/C=C/c4ccc(cc4)C[C@@H](C(=O)N(C)CC(=O)N[C@@H](CCc4ccc(Cl)c(Cl)c4)C(=O)N2C1)N1CC/C=C\C[C@@H](C1=O)N(C)C(=O)CN(C)C(=O)[C@H]([C@@H](C)CC)NC3=O [PP3046] |  | 0.39 | A (a compound having 10 or more and less than 20 is denoted as A) | AA (a compound having 20 or more is denoted as AA) |  |
| CC[C@H](C)[C@@H]1NC(=O)[C@H](CC2CC2)N(C)C(=O)C[C@@H](C(=O)N(C)C)N(C)C(=O)[C@H](C2CCCC2)N(C)C(=O)C2(CCC2)NC(=O)[C@@H]2[C@@H](OCC(F)F)CCN2C(=O)[C@H](CCc2cc(F)c(C(F)(F)F)c(F)c2)NC(=O)CN(C)C(=O)[C@H](Cc2ccc(C(F)(F)F)cc2)N2CC/C=C\C[C@@H](C2=O)N(C)C(=O)CN(C)C1=O [PP1533] |  |  |  |  | HRAS/KRAS (ratio of KD value for HRAS to KD value for KRAS) ([1]; KD ratio class): A (a compound having 10 or more and less than 20 is denoted as A); NRAS/KRAS (ratio of KD value for NRAS to KD value for KRAS) ([2]; KD ratio class): AA (a compound having 20 or more is denoted as AA); Kd [3, 5]: 0.13 nM |
| CCO[C@@H]1C[C@H]2C(=O)NC3(CCC3)C(=O)N(C)[C@@H](C3CCCC3)C(=O)N(C)[C@H](C(=O)N(CC)CC)CC(=O)N(C)[C@@H](C)C(=O)N[C@@H]([C@@H](C)CC)C(=O)N(C)CC(=O)N(C)[C@H]3C/C=C\CCN(C3=O)[C@@H](Cc3ccc(C(F)(F)F)cc3)C(=O)N(C)CC(=O)N[C@@H](CCc3cc(F)c(C(F)(F)F)c(F)c3)C(=O)N2C1 [PP1308, (2S,8S,12R,14S,20S,23S,27S,30S,36S,38Z)-20-cyclopentyl-8-[2-[3,5-difluoro-4-(trifluoromethyl)phenyl]ethyl]-12-ethoxy-N,N-diethyl-4,19,22,26,27,32,35-heptamethyl-30-[(1S)-1-methylpropyl]-3,6,9,15,18,21,25,28,31,34,42-undecaoxo-2-[[4-(trifluoromethyl)phenyl]methyl]spiro[1,4,7,10,16,19,22,26,29,32,35-undecazatricyclo[34.5.1.0^10,14]dotetracont-38-ene-17,1′-cyclobutane]-23-carboxamide] |  |  |  |  | HRAS/KRAS (ratio of KD value for HRAS to KD value for KRAS) ([1]; KD ratio class): A (a compound having 10 or more and less than 20 is denoted as A); NRAS/KRAS (ratio of KD value for NRAS to KD value for KRAS) ([2]; KD ratio class): A (a compound having 10 or more and less than 20 is denoted as A); Kd [3, 5]: 0.1 nM |
| CC[C@H](C)[C@@H]1NC(=O)[C@H](CC(C)C)N(C)C(=O)C[C@@H](C(=O)N(C)C)N(C)C(=O)[C@H](C2CCCC2)N(C)C(=O)C2(CCCC2)NC(=O)[C@@H]2CCCN2C(=O)[C@H](CCc2cc(F)c(C(F)(F)F)c(F)c2)NC(=O)CN(C)C(=O)[C@H](Cc2ccc(C(F)(F)F)cc2)N2CCCCC[C@@H](C2=O)N(C)C(=O)CN(C)C1=O [PP0507] | 0.94 |  |  |  | HRAS/KRAS (ratio of KD value with respect to HRAS to KD value with respect to KRAS) [1]: B (a compound having 3 or more and less than 10 is denoted as B); NRAS/KRAS (ratio of KD value with respect to NRAS to KD value with respect to KRAS) [2]: B (a compound having 3 or more and less than 10 is denoted as B) |
| CC[C@H](C)[C@@H]1NC(=O)[C@H](C)N(C)C(=O)C[C@@H](C(=O)N(C)C)N(C)C(=O)[C@H](C2CCCC2)N(C)C(=O)C2(CCC2)NC(=O)[C@@H]2CCCN2C(=O)[C@H](CCc2cc(F)c(C(F)(F)F)c(F)c2)NC(=O)CN(C)C(=O)[C@H](Cc2ccc(C(F)(F)F)cc2)N2CCCCC[C@@H](C2=O)N(C)C(=O)CN(C)C1=O [PP0470] | 0.55 |  |  |  | HRAS/KRAS (ratio of KD value with respect to HRAS to KD value with respect to KRAS) [1]: B (a compound having 3 or more and less than 10 is denoted as B); NRAS/KRAS (ratio of KD value with respect to NRAS to KD value with respect to KRAS) [2]: B (a compound having 3 or more and less than 10 is denoted as B) |
| CCO[C@@H]1C[C@H]2C(=O)NC3(CCC3)C(=O)N(C)[C@@H](C3CCCC3)C(=O)N(C)[C@H](C(=O)N3CCOCC3)CC(=O)N(C)[C@@H](CC(F)F)C(=O)N[C@@H]([C@@H](C)CC)C(=O)N(C)CC(=O)N(C)[C@H]3CCCCCN(C3=O)[C@@H](Cc3ccc(C(F)(F)F)cc3)C(=O)N(C)CC(=O)N[C@@H](CCc3cc(F)c(C(F)(F)F)c(F)c3)C(=O)N2C1 [PP0854] |  | 0.38 | B (a compound having 3 or more and less than 10 is denoted as B) | B (a compound having 3 or more and less than 10 is denoted as B) |  |

Second part, led by results:

| Kd [3, 4] [nM] | Kd ([3]; SPR, Single Cycle Kinetics) [nM] | SMILES | HRAS/KRAS (ratio of KD value for HRAS to KD value for KRAS) [1] | NRAS/KRAS (ratio of KD value for NRAS to KD value for KRAS) [2] | also measured |
| --- | --- | --- | --- | --- | --- |
|  | 0.085 | CCCO[C@H]1CCN2C(=O)[C@H](CCc3cc(F)c(C(F)(F)F)c(F)c3)NC(=O)CN(C)C(=O)[C@H](Cc3ccc(C(F)(F)F)cc3)N3CCCC[C@@H](C3=O)N(C)C(=O)CN(C)C(=O)[C@H]([C@@H](C)CC)NC(=O)[C@H](CC(C)C)N(C)C(=O)C[C@@H](C(=O)N3CCOCC3)N(C)C(=O)[C@H](C3CCCC3)N(C)C(=O)C3(CCC3)NC(=O)[C@H]12 [PP1077] | B (a compound having 3 or more and less than 10 is denoted as B) | B (a compound having 3 or more and less than 10 is denoted as B) |  |
|  | 0.31 | CCC[C@H]1C(=O)N[C@@H](C2CCCC2)C(=O)N(C)CC(=O)N(C)[C@H]2C/C=C\CCN(C2=O)[C@@H](Cc2ccc(C(F)(F)F)cc2)C(=O)N(C)CC(=O)N[C@@H](CCc2ccc(C(F)(F)F)c(Cl)c2)C(=O)N2CC3(CC3)C[C@H]2C(=O)NC2(CC(C)(C)C2)C(=O)N(C)[C@@H](CC(C)(C)C)C(=O)N(C)[C@H](C(=O)N(C)C)CC(=O)N1C [PP2981] | A (a compound having 10 or more and less than 20 is denoted as A) | AA (a compound having 20 or more is denoted as AA) |  |
|  | 0.065 | CCO[C@@H]1C[C@H]2C(=O)NC3(CCC3)C(=O)N(C)[C@@H](C3CCCC3)C(=O)N(C)[C@H](C(=O)N(C)CC)CC(=O)N(C)[C@H]3CCC/C=C/c4ccc(cc4)C[C@@H](C(=O)N(C)CC(=O)N[C@@H](CCc4ccc(C(F)(F)F)c(OC)c4)C(=O)N2C1)N1CC/C=C\C[C@@H](C1=O)N(C)C(=O)CN(C)C(=O)[C@H]([C@@H](C)CC)NC3=O [PP1834] |  |  | HRAS/KRAS (KD ratio) ([1]; ratio of KD for GDP-bound HRAS wild-type protein to KD for KRAS): B (a compound having 3 or more and less than 10 is denoted as B); NRAS/KRAS (KD ratio) ([2]; ratio of KD for GDP-bound NRAS wild-type protein to KD for KRAS): A (a compound having 10 or more and less than 20 is denoted as A) |
|  | 1.9 | CCO[C@@H]1C[C@H]2C(=O)NC3(CCC3)C(=O)N(C)[C@@H](C3CCCC3)C(=O)N(C)[C@H](C(=O)N3CCOCC3)CC(=O)N(C)[C@@H](Cc3ccccc3C)C(=O)N[C@@H]([C@@H](C)CC)C(=O)N(C)CC(=O)N(C)[C@H]3CCCCCN(C3=O)[C@@H](Cc3ccc(C(F)(F)F)cc3)C(=O)N(C)CC(=O)N[C@@H](CCc3cc(F)c(C(F)(F)F)c(F)c3)C(=O)N2C1 [PP0931] | B (a compound having 3 or more and less than 10 is denoted as B) | A (a compound having 10 or more and less than 20 is denoted as A) |  |
